Read-outs that look alike come from different tables or passages of the source. *1 amine or outer side, *2 acyl side, *3 side chain or, on linkers, in order; H or OH if unused. Where a SMILES comes first, the peptide text is derived from it. Bridges are numbered along the chain shown (N, C = ends). [ ]: non-standard residue; d: D form. TBMB = c1c(C[*:1])cc(C[*:3])cc1C[*:2]; hArg = N=C(N)NCCCC[C@H](N)C(=O)O; Aze = O=C(O)[C@@H]1CCN1
Tests used:
[1] = Plasma stability profiling Method #2 (95% plasma, MALDI-TOF), rat plasma; type: in vitro ADME; settings: qualitative, sampled up to 46 hrs
Experimental: (§1) To obtain stability data more rapidly, peptides were also assessed in 95% plasma. Here, PBS was omitted, and a 1-5 mM peptide stock (in DMSO) was directly diluted into plasma (i.e. 2.5 μL stock into 47.5 μL plasma), giving a final concentration of 50 μM. 5 μL samples were taken at appropriate time points and frozen at −80° C. For analysis, the samples were defrosted, mixed with 25 μL of 3:3:1 acetonitrile:methanol:water, and centrifuged at 13 k for 5 min. 5 μL of the peptide-containing supernatant was aspirated and mixed with 30 mM ammonium bicarbonate in a 1:1 mixture of acetonitrile:H2O. 1 μL of this was then spotted on the MALDI plate and analysed as described above. As above, it should be noted that this is a qualitative assay serves to detect relative changes in plasma stability.

[2] = Plasma stability profiling Method #2 (95% plasma, MALDI-TOF), human plasma; type: in vitro ADME; settings: qualitative, sampled up to 46 hrs
Experimental: as §1

rat plasma kallikrein = target: T1, rat plasma kallikrein (Rattus norvegicus, UniProt P14272); assay: Functional enzyme assay, inhibition of rat plasma kallikrein (Z-PheArg-AMC substrate); type: biochemical
T1 construct: polyhistidine tag followed by proTEV cleavage site (pro-peptide) (N, cleaved yes); made in house; host or cells: HEK-293 (suspension-adapted), pEXPR-IBA42 vector
Experimental: (§2) Functional enzyme assays were conducted in 10 mM Tris HCl, 150 mM NaCl, 10 mM MgCl2, 1 mM CaCl2 and 1 mg/mL BSA (all Sigma UK) pH 7.4 at 25° C. in solid black 96 or 384 well plates. […] Release of AMC was measured using a Pherastar FS (BMG Labtech), excitation 360 nm, emission 460 nm. The rate of the linear phase of the reaction, typically 5 to 45 minutes, was calculated in MARS data analysis software (BMG labtech). The rate was then used to calculate the IC50 and Ki in Prism (GraphPad). A four parameter inhibition non-linear regression equation was used to calculate the IC50. […]
(§3) Peptides were dissolved as the TFA-salts in their powder form, and stock solutions were usually prepared in water. All solutions were centrifuged and filtered ([…] syringe filters) prior to absorption measurement at 280 nm. Extinction coefficients were calculated based on the Trp/Tyr content of the peptide, and that of TMB (the TMB core, when contained in a peptide, has an extinction coefficient of ˜300 M^−1 cm^−1).

[3] = target: T2, biotinylated human plasma kallikrein (Homo sapiens, UniProt P03952); assay: Homogeneous plate-based screening assay of TBMB-cyclised phage clones (signal:background); type: binding
T2 construct: The human kallikrein is non-recombinant and therefore the heavy chain is present; purchased Innovative Research, Novi, Mich., USA IHPKA; host or cells: from human plasma
Experimental: Assay of binding of individual clones: Library transformant colonies were picked at random and grown as individual cultures in 2TY broth containing selective antibiotic. The picked colonies were DNA-sequenced using a QIAgen PyroMark Q96 DNA sequencer to reveal the amino-acid substitution present in each clone. Where isolated, a clone of each unique substitution was assayed for human plasma kallikrein binding as follows. The phage-containing supernatant was harvested from the culture and phage were cyclised with tris bromomethyl benzene (TBMB) based on the methods of Heinis et al (Nature Chemical Biology vol. 5 pp 502-507 (2009)). The purified phage from this process were assayed for binding to biotinylated human plasma kallikrein using a homogeneous plate-based binding assay; assay read-out measured on a BMG Labtech Pherastar FS plate reader. The quantitative binding data from triplicate assay samples was averaged (mean) and expressed as signal:background (where background was a sample assayed with no target material). The signal:background was expressed as a % of the parallel parent sample. Error bars denote standard deviation of the mean. Assays shown are representative of at least 2 independent experiments. The assay data was correlated with the peptide sequences. Substitutions marked in grey were not tested (a clone was not isolated from the random library sampling). A sample of a non-binding (arbitrary) bicycle was assayed in parallel to illustrate the assay baseline.
Assay of binding of individual clones: Library transformant colonies, or selection output colonies, were picked and grown as individual cultures in 2TY broth containing selective antibiotic. The picked colonies were DNA-sequenced using a QIAgen PyroMark Q96 DNA sequencer to reveal the amino-acid substitution present in each clone, and were assayed for human plasma kallikrein binding as follows. The phage-containing supernatant was harvested from the culture and phage were cyclised with tris-bromomethylbenzene (TBMB) based on the methods of Heinis et al (Nature Chemical Biology vol. 5 pp 502-507 (2009)). The purified phage from this process were assayed for binding to biotinylated human plasma kallikrein using a homogeneous plate-based binding assay; assay read-out measured on a BMG Labtech Pherastar FS plate reader. The quantitative binding data from duplicate assay samples was averaged (mean) and expressed as signal:background. Assay data shown is representative of at least 2 independent experiments. The assay data was correlated with the peptide sequences.

rabbit kallikrein = rabbit kallikrein (Oryctolagus cuniculus, UniProt G1T127); assay: Functional enzyme assay, inhibition of rabbit kallikrein; type: biochemical; settings: read-out: Rabbit (Ki)
Experimental: as §2, §3

human plasma kallikrein = target: T3, human plasma kallikrein (Homo sapiens, UniProt P03952); assay: Functional enzyme assay, inhibition of human plasma kallikrein (Z-PheArg-AMC substrate); type: biochemical
T3 construct: purchased Stratech, UK
Experimental: as §2, §3

[4] = Aqueous solubility (qualitative); type: physicochemical; settings: in words
[5] = Table 1, synthetic peptides, read-out: Rat (Ki)
[6] = Table 3, 06-254 affinity-matured library
[7] = Table 1, synthetic peptides, read-out: Human (Ki)
[8] = Table 4, 06-259 affinity-matured library

T2 sequence (P03952 391-638 limits assumed): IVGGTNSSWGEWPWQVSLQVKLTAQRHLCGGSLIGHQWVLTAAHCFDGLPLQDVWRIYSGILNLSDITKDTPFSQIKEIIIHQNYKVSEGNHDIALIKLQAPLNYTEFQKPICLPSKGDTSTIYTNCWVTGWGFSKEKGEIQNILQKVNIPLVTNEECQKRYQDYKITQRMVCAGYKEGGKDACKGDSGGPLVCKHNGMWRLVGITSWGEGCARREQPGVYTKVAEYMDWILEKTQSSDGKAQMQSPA
T2 sequence (P03952 20-390 partner limits assumed): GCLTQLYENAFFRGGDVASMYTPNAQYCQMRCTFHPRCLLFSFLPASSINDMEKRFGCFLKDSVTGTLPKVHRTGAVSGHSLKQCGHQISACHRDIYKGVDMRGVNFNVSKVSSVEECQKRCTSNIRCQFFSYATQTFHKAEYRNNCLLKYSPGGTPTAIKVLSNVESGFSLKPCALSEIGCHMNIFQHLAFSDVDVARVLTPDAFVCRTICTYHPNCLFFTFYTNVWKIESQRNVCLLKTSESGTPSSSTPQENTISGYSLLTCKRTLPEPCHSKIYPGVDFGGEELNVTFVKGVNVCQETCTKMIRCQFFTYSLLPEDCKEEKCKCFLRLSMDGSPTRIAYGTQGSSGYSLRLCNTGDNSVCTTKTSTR
T3 sequence (P03952 391-638 limits assumed): as the sequence (P03952 391-638 limits assumed) above
T3 sequence (P03952 20-390 partner limits assumed): as the sequence (P03952 20-390 partner limits assumed) above
rabbit kallikrein, sequence (G1T127 20-629): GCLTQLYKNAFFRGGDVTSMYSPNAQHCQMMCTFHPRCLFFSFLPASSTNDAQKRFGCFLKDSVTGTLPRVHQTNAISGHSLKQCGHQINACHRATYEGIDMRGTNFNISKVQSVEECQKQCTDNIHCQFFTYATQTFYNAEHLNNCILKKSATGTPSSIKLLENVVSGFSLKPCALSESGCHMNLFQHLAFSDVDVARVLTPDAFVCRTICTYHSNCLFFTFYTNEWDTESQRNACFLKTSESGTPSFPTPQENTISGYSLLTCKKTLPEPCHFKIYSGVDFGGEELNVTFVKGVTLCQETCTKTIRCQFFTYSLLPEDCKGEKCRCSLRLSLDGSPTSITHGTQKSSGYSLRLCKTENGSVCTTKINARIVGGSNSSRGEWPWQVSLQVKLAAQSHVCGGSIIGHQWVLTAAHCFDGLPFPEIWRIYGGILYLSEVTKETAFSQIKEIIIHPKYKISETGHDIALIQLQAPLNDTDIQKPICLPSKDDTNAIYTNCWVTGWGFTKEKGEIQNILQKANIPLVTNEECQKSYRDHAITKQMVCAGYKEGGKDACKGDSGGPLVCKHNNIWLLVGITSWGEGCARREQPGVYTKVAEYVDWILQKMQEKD
T1 sequence (P14272 391-638 limits assumed): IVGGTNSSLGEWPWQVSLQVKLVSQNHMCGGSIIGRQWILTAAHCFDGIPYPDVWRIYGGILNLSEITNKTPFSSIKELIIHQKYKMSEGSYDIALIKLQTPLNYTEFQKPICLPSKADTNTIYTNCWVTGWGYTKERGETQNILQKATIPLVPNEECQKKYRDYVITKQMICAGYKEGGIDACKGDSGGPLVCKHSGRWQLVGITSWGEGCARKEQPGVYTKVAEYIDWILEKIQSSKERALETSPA

SMILES | Ki (rat plasma kallikrein; [5]) [nM] | Ki (rabbit kallikrein; Table 1, synthetic peptides) [nM] | Ki (rabbit kallikrein; Table 5) [nM] | Ki (human plasma kallikrein; [7]) [nM] | S:B (Signal:Background) [3, 8] | further results
CC(C)C[C@@H]1NC(=O)[C@H](CC(=O)O)NC(=O)[C@H](CCC(N)=O)NC(=O)[C@H](Cc2c[nH]cn2)NC(=O)[C@H](CC(C)C)NC(=O)[C@@H]2CSCc3cc(cc(c3)CSC[C@H](N)C(=O)N[C@@H](CO)C(=O)N[C@@H](Cc3c[nH]c4ccccc34)C(=O)N3CCC[C@H]3C(=O)N[C@@H](C)C(=O)N[C@@H](CCCNC(=N)N)C(=O)N2)CSC[C@@H](C(N)=O)NC1=O [06-34-18, reference compound] (H-CSWPARCLHQDLC-NH2; linker 1-7-13 via TBMB; N-terminus and C-terminus assumed) |  |  |  |  |  | comparative stability in rat plasma [1]: largely disappeared; comparative stability in human plasma [2]: largely disappeared
CC[C@H](C)[C@@H]1NC(=O)[C@H]([C@@H](C)O)NC(=O)[C@H](C(C)C)NC(=O)[C@H](CC(C)C)NC(=O)[C@H](CC(=O)O)NC(=O)[C@@H]2CSCc3cc(cc(c3)CSC[C@@H](C(=O)N[C@@H](C)C(N)=O)NC(=O)[C@H](CO)NC1=O)CSC[C@H](NC(=O)[C@H](C)N)C(=O)N[C@@H](CCCCN)C(=O)N[C@@H](CC(N)=O)C(=O)N[C@@H](Cc1ccc(O)cc1)C(=O)N[C@@H](Cc1c[nH]c3ccccc13)C(=O)N[C@@H](CC(N)=O)C(=O)N1CCC[C@H]1C(=O)N2 [06-254] (H-ACKNYWNPCDLVTISCA-NH2; linker 2-9-16 via TBMB; N-terminus assumed) | 42.5 | 280 | 280 | 5.3 |  | S:B (Signal:Background) [3, 6]: 23.48
CC(C)C[C@@H]1NC(=O)[C@H](CC(N)=O)NC(=O)[C@H](CCC(=O)O)NC(=O)[C@H](Cc2c[nH]cn2)NC(=O)[C@H](CC(C)C)NC(=O)[C@@H]2CSCc3cc(cc(c3)CSC[C@H](NC(=O)[C@H](C)N)C(=O)N3CCC[C@H]3C(=O)N[C@@H](Cc3ccc(O)cc3)C(=O)N3CCC[C@H]3C(=O)N[C@@H](Cc3ccccc3)C(=O)N[C@@H](CCCNC(=N)N)C(=O)N2)CSC[C@@H](C(=O)N[C@@H](C)C(N)=O)NC1=O [06-258] (H-ACPYPFRCLHENLCA-NH2; linker 2-8-14 via TBMB; N-terminus and C-terminus assumed) | 5.2 | 331 | 331 | 4.3 |  | 
CC[C@H](C)[C@@H]1NC(=O)[C@@H]2CCCN2C(=O)[C@@H]2CCCN2C(=O)[C@H](CC(=O)O)NC(=O)[C@H](C)NC(=O)[C@H](CO)NC(=O)[C@@H]2CSCc3cc(cc(c3)CSC[C@@H](C(=O)N[C@@H](C)C(N)=O)NC1=O)CSC[C@H](NC(=O)[C@H](C)N)C(=O)N[C@@H](CC(N)=O)C(=O)N[C@@H](Cc1c[nH]cn1)C(=O)N[C@@H](Cc1c[nH]c3ccccc13)C(=O)N[C@@H](CC(N)=O)C(=O)N1CCC[C@H]1C(=O)N[C@@H](Cc1c[nH]c3ccccc13)C(=O)N2 [06-259-03] (H-ACNHWNPWCSADPPICA-NH2; linker 2-9-16 via TBMB; N-terminus and C-terminus assumed) |  |  |  |  | 49.82 | Ki (rat plasma kallikrein; Table 5, read-out: Rat (Ki)): 8.2 nM; Ki (human plasma kallikrein; Table 5, read-out: Human (Ki)): 1.4 nM
CC(C)[C@@H]1NC(=O)[C@H](Cc2c[nH]c3ccccc23)NC(=O)CNC(=O)[C@@H]2CSCc3cc(cc(c3)CSC[C@@H](C(=O)N[C@@H](C)C(N)=O)NC(=O)[C@H](Cc3ccccc3)NC(=O)CNC(=O)CNC1=O)CSC[C@H](NC(=O)[C@H](C)N)C(=O)N[C@@H](CC(N)=O)C(=O)N[C@@H]([C@@H](C)O)C(=O)N[C@@H](Cc1c[nH]c3ccccc13)C(=O)N[C@@H](CC(N)=O)C(=O)N1CCC[C@H]1C(=O)N[C@@H](Cc1c[nH]c3ccccc13)C(=O)N2 [06-259] (H-ACNTWNPWCGWVGGFCA-NH2; linker 2-9-16 via TBMB; N-terminus and C-terminus assumed) | 6.2 |  |  | 20.1 | 1.17 | 
CC[C@H](C)[C@@H]1NC(=O)[C@H](CC(=O)O)NC(=O)[C@@H]2CCCN2C(=O)[C@H](Cc2ccc(O)cc2)NC(=O)[C@H](Cc2ccc(O)cc2)NC(=O)[C@H](C(C)C)NC(=O)[C@@H]2CSCc3cc(cc(c3)CSC[C@@H](C(=O)N[C@@H](C)C(N)=O)NC1=O)CSC[C@H](NC(=O)[C@H](C)N)C(=O)N[C@@H](CC(N)=O)C(=O)N[C@@H](CC(N)=O)C(=O)N[C@@H](Cc1ccccc1)C(=O)N1CCC[C@H]1C(=O)N[C@@H](Cc1ccccc1)C(=O)N[C@@H](CCCNC(=N)N)C(=O)N2 [06-261] (H-ACNNFPFRCVYYPDICA-NH2; linker 2-9-16 via TBMB; N-terminus assumed) | 4 | 1040 | 1040 | 0.4 |  | 
CC[C@H](C)[C@@H]1NC(=O)[C@H](CC(=O)O)NC(=O)[C@@H]2CCCN2C(=O)[C@H](Cc2ccc(O)cc2)NC(=O)[C@H](Cc2ccc(O)cc2)NC(=O)[C@H](C(C)C)NC(=O)[C@@H]2CSCc3cc(cc(c3)CSC[C@H](N)C(=O)N[C@@H](CO)C(=O)N[C@@H](Cc3ccccc3)C(=O)N3CC[C@H]3C(=O)N[C@@H](Cc3ccc(O)cc3)C(=O)N[C@@H](CCCCNC(=N)N)C(=O)N2)CSC[C@@H](C(N)=O)NC1=O [06-550 Aze3 HArg5, -Ci-S-F-[Aze]-Y-[hR]-Cii-V-Y-Y-P-D-I-Ciii-] (H-CSF[Aze]Y[hArg]CVYYPDIC-NH2; linker 1-7-14 via TBMB; N-terminus and C-terminus assumed) |  |  |  |  |  | aqueous solubility [4]: significantly reduced aqueous solubility
CC(C)C[C@@H]1NC(=O)[C@H](C)NC(=O)[C@H](CCC(=O)O)NC(=O)[C@H](CC(=O)O)NC(=O)[C@H](C)NC(=O)[C@@H]2CCCN2C(=O)[C@@H]2CSCc3cc(cc(c3)CSC[C@@H](C(=O)NCC(N)=O)NC1=O)CSC[C@H](NC(=O)[C@H](C)N)C(=O)N[C@@H](CO)C(=O)N[C@@H](CC(=O)O)C(=O)N[C@@H](CCCNC(=N)N)C(=O)N[C@@H](Cc1ccccc1)C(=O)N[C@@H](CCCNC(=N)N)C(=O)N[C@@H](CC(N)=O)C(=O)N2 [PK15, reference compound] (H-ACSDRFRNCPADEALCG-NH2; linker 2-9-16 via TBMB (inferred); N-terminus and C-terminus assumed) |  |  |  |  | 14.05 | Ki (rat plasma kallikrein; text b212, read-out: Ki to rat kallikrein): ~500 nM; S:B (Signal:Background) [3, 6]: 14.05; Ki (human plasma kallikrein; text b212, read-out: Ki to human kallikrein): ~1.2 nM
